Reference: patent US20180119123A1, “CRISPR/CAS-RELATED METHODS AND COMPOSITIONS FOR TREATING HIV INFECTION AND AIDS” (EDITAS MEDICINE, INC., priority 2015, published 2018)
“Also recorded” adds a separate entry of the source.

Key:
[1] = tested on: human mobilized peripheral blood CD34^+ HSCs; assay: Fold change in CD34+ cell number (trypan blue count) 96 hours after Nucleofection; format: cell-based
Protocol: Human CD34^+ HSCs cells from mobilized peripheral blood (AllCells) were thawed into StemSpan Serum-Free Expansion Medium (SFEM™, StemCell Technologies) containing 100 ng/mL each of the following cytokines: human stem cell factor (SCF), thrombopoietin (TPO), and flt-3 ligand (FL) (all from Peprotech). Cells were grown for 3 days in a humidified incubator and 5% CO2 20% O2. […] The published use of UM171 involved prolonged exposure of HSCs to the small molecule for ex vivo expansion of HSCs. In the current experiment, HSCs were exposed to UM171 for 2 hours before and 24 hours after delivery of Cas9 and gRNA plasmid DNA. This UM171 treatment protocol was based on pilot studies performed by the inventors that indicated acute pre-treatment with UM171 before lentivirus vector mediated gene delivery improved HSC viability compared to HSCs treated with vehicle (dimethylsulfoxide, DMSO, Sigma) alone. […] At 96 hours after Nucleofection™, CD34^+ cells were counted for by trypan blue exclusion and divided into 3 portions for the following analyses: a) flow cytometry analysis for assessment of viability by co-staining with 7-Aminoactinomycin-D (7-AAD) and allophycocyanin (APC)-conjugated Annexin-V antibody (ebioscience); b) flow cytometry analysis for maintenance of HSC phenotype (after co-staining with phycoerythrin (PE)-conjugated anti-human CD34 antibody and fluorescein isothicyanate (FITC)-conjugated anti-human CD90, both from BD Bioscience; c) hematopoietic colony forming cell (CFC) analysis by plating 1500 cells in semi-solid methylcellulose based Methocult medium (StemCell Technologies) that supports differentiation of erythroid and myeloid blood cell colonies from HSCs and serves as a surrogate assay to evaluate HSC multipotency and differentiation potential ex vivo; d) genomic DNA analysis for detection of editing at the CCR5 locus. […]

CD34^+ HSCs = assay: Hematopoietic colony forming cell (CFC) assay in Methocult medium; format: cell-based, human; settings: Nucleofection with wild-type Cas9 and CCR5-U43 gRNA plasmid DNA + UM171; two weeks
Protocol: Human CD34^+ HSCs cells from mobilized peripheral blood (AllCells) were thawed into StemSpan Serum-Free Expansion Medium (SFEM™, StemCell Technologies) containing 100 ng/mL each of the following cytokines: human stem cell factor (SCF), thrombopoietin (TPO), and flt-3 ligand (FL) (all from Peprotech). Cells were grown for 3 days in a humidified incubator and 5% CO2 20% O2. […] The published use of UM171 involved prolonged exposure of HSCs to the small molecule for ex vivo expansion of HSCs. In the current experiment, HSCs were exposed to UM171 for 2 hours before and 24 hours after delivery of Cas9 and gRNA plasmid DNA. This UM171 treatment protocol was based on pilot studies performed by the inventors that indicated acute pre-treatment with UM171 before lentivirus vector mediated gene delivery improved HSC viability compared to HSCs treated with vehicle (dimethylsulfoxide, DMSO, Sigma) alone. After the 2-hour pretreatment with UM171, 1 million […] HSCs were Nucleofected™ with the Amaxa™ 4D Nucleofector™ device (Lonza), Program EO100 using components of the P3 Primary Cell 4D-Nucleofector Kit™ (Lonza) according to the manufacturer's instructions. Briefly, one million cells were suspended in Nucleofector™ solution and the following amounts of plasmid DNA were added to the cell suspension: 1250 ng plasmid expressing CCR5 gRNA (CCR5-U43) from the human U6 promoter and 3750 ng plasmid expressing wild-type S. pyogenes Cas 9 transcriptionally regulated by the CMV promoter. After Nucleofection™, cells were plated into Stemspan-SFEM™ supplemented with SCF, TPO, FL and 40 nM UM171. After overnight incubation, HSCs were plated in Stemspan-SFEM™ plus cytokines without UM171. At 96 hours after Nucleofection™, CD34^+ cells were counted for by trypan blue exclusion and divided into 3 portions for the following analyses: a) flow cytometry analysis for assessment of viability by co-staining with 7-Aminoactinomycin-D (7-AAD) and allophycocyanin (APC)-conjugated Annexin-V antibody (ebioscience); b) flow cytometry analysis for maintenance of HSC phenotype (after co-staining with phycoerythrin (PE)-conjugated anti-human CD34 antibody and fluorescein isothicyanate (FITC)-conjugated anti-human CD90, both from BD Bioscience; c) hematopoietic colony forming cell (CFC) analysis by plating 1500 cells in semi-solid methylcellulose based Methocult medium (StemCell Technologies) that supports differentiation of erythroid and myeloid blood cell colonies from HSCs and serves as a surrogate assay to evaluate HSC multipotency and differentiation potential ex vivo; d) genomic DNA analysis for detection of editing at the CCR5 locus. Genomic DNA was extracted from HSCs 96 hours after Nucleofection™, and CCR5 locus-specific PCR reactions were performed.
To evaluate maintenance of HSC potency and differentiation potential, two weeks after plating CD34^+ HSCs in CFC assays, hematopoietic activity was quantified based on scoring the HSC progeny by enumerating the total number of hematopoietic colony forming units (CFU) and the frequencies of specific blood cell phenotypes, including: mixed myeloid/erythroid (Granulocyte-erythroid-monocyte macrophage, CFU-GEMM), myeloid (CFU-macrophage (M), granulocyte-macrophage (CFU-GM)) and erythroid (CFU-E) colonies. CD34^+ HSCs that were Nucleofected™ after UM171 pre-treatment maintained CFC potential compared to un-Nucleofected™ HSCs (Table 12). In contrast, CD34^+ HSCs that were Nucleofected™ without UM171 pre-treatment had reduced CFC potential (lower total CFC counts and reduced numbers of mixed-phenotype colonies (CFU-GEMM) and erythroid colonies (CFU-E)) in comparison to un-Nucleofected™ CD34^+ HSCs.
Human CD34^+ HSCs cells from mobilized peripheral blood (AllCells) were thawed into StemSpan Serum-Free Expansion Medium (SFEM, StemCell Technologies) containing 100 ng/mL each of the following cytokines: human stem cell factor (SCF), thrombopoietin (TPO), and flt-3 ligand (FL) (all from Peprotech). […]

Cn1nnc(-c2ccc3c(c2)[nH]c2nc(Cc4ccccc4)nc(N[C@H]4CC[C@H](N)CC4)c23)n1 [UM171, (1r,4r)-N1-(2-benzyl-7-(2-methyl-2H-tetrazol-5-yl)-9H-pyrimido[4,5-b]indol-4-yl)cyclohexane-1,4-diamine]
Fold expansion / proliferation potential of Nucleofected CD34+ cells with UM171 pre-treatment versus without ([1]; 40 nM UM171, S. aureus or S. pyogenes Cas9 and CXCR4 gRNA plasmids): higher fold-expansion; also recorded: maintain proliferation potential | Fold change in cell number of CD34^+ cells (96 hours vs. time 0 cell number) ([1]; Nucleofection with wild type Cas9 and CCR5-U43 gRNA plasmid DNA + UM171 treatment (40 nM, 2 hours before and 24 hours after)): 1.5 | Number of colony forming units: E (CD34^+ HSCs): 92 colony forming units per 1500 CD34^+ HSCs plated | Number of colony forming units: G (CD34^+ HSCs): 40 colony forming units per 1500 CD34^+ HSCs plated | Number of colony forming units: GEMM (CD34^+ HSCs): 20 colony forming units per 1500 CD34^+ HSCs plated | Number of colony forming units: GM (CD34^+ HSCs): 32 colony forming units per 1500 CD34^+ HSCs plated | Number of colony forming units: M (CD34^+ HSCs): 64 colony forming units per 1500 CD34^+ HSCs plated | Number of colony forming units: Total (CD34^+ HSCs): 228 colony forming units per 1500 CD34^+ HSCs plated
